# Measured values taken from the NIST ThermoML archive (doi:10.1016/j.jct.2015.12.034).
# ± gives the expanded uncertainty stated by the source.
# Experiment: activity coefficient (dimensionless); of the first substance listed, at infinite dilution; xn = mol fraction of the nth substance listed
# Details: 298.15 K; 238 kPa; Liquid; Chromatography; x1 = 0
row,Structure (SMILES),activity coefficient
1,CCCCCCCC [octane] + CC#N,52.3 ± 4.5
2,CCCCCCCC [octane] + CC(C)=O,10.7 ± 0.9
3,Cc1ccccc1 [toluene] + CC#N,3.95 ± 0.34
4,Cc1ccccc1 [toluene] + CC(C)=O,2.01 ± 0.17
